{
  "source": "patent US11974993B2",
  "about": "“Solution formulations of CX-011” (City of Hope, priority 2021, dated 2024)",
  "key": {"[1]": {"assay": "Dissolution of solid CX-011 in solvents and excipient solutions, determined by visual inspection", "assay_type": "physicochemical", "procedure": "Confirmation of dissolution can be confirmed by visual inspection, either by the naked eye or by microscope, to detect the presence of undissolved particles. Spectroscopic methods can also be used, such as light scattering detection or absorbance spectroscopy. Apparatuses for such spectroscopic detection are well-known in the art.\nSolid CX-011 (5 mg) was mixed in a solution of 20%-40% 2-Hydroxypropyl)-β-cyclodextrin (Accelachem) in water (10 mL) and the mixture sonicated for 30 minutes. Dissolution determined by visual inspection. Not soluble.\nSolid CX-011 (5 mg) was mixed in a solution of 20%-40% 2-Hydroxypropyl)-β-cyclodextrin (Accelachem) in water (10 mL) and 50 μL 1N HCl and the mixture sonicated for 30 minutes. Dissolution determined by visual inspection. Not soluble.\nSolid CX-011 (4 mg) was mixed in a solution of 3N HCl aqueous (2 mL) and the mixture sonicated for 30 minutes. Dissolution determined by visual inspection. Not soluble.\nSolid CX-011 (2.6 mg) was mixed in a solution of ˜4N HCl in methanol (200 uL) and the mixture sonicated for 30 minutes. Dissolution determined by visual inspection. Not soluble.\nSolvent was evaporated. The remaining residue was washed with ether twice, then dried. The dried residue was mixed with water (10 mL) and the mixture sonicated for 30 minutes. Dissolution determined by visual inspection. Not soluble.\nSolid CX-011 (1 mg) was mixed in a solution of 10% polyvinylpyrrolidone K-30 (10 mL) and the mixture sonicated for 30 minutes. Dissolution determined by visual inspection. Not soluble.\nSolid CX-011 (1.5 mg) was mixed in ethanol (0.5 mL) and the mixture sonicated for 30 minutes. Dissolution determined by visual inspection. Not soluble.\nSolid CX-011 (3 mg) was mixed in propylene glycol (0.5 mL) (Spectrum) and the mixture sonicated for 30 minutes. Dissolution determined by visual inspection. Not soluble.\nWater (0.5 mL) was added.\nSolid CX-011 (2.8 mg) was added to PEG400 (0.5 mL) (Spectrum) and mixed on a vortexer until dissolved. Water (0.5 mL) was added.\nSolid CX-011 (3.0 mg) was mixed in 30% Kolliphor® HS 15 (5 mL) (Sigma) and the mixture sonicated for 30 minutes. Dissolution determined by visual inspection.\nSolid CX-011 (15 mg) was mixed in polysorbate 80 (1 mL) and the mixture sonicated for 30 minutes. The solution was clear.\n(§1) 15 mg CX-011 was added to a 50 mL tube. A volume of 5-10 mL 30% kolliphor HS was added. […] Distilled water or other physiology buffer, for example, PBS or saline was added to the above completely dissolved solution to final volume 100 mL with gently stirring. The solution can be filtered through 0.22 um filter. The appearance and pH value was noted. The solution was clear with pH value 5-5.5 for water and saline solution and is 7.2 for PBS solution. […] The final Kolliphor HS concentration in solution is about 1.5%-3%."}, "[2]": {"assay": "Properties of the CX-011 solution in Kolliphor HS 15: pH, 0.22 um filtration with UV absorbance at 323 nm, storage stability by appearance and HPLC", "assay_type": "physicochemical", "procedure": "Preparation of 30% (w/v) Kolliphor HS 15 in aqueous solution. Solid Kolliphor HS 15 was immersed in a water bath at 37° C. until melted. A 30% (w/v) solution was prepared by vortex mixing Kolliphor HS 15 with an appropriate amount of distilled water. The mixture was filtered through a 0.22 um PES filter (Corning).\nas §1"}, "[3]": {"test_system": "aggrecan and collagen neoepitopes", "details": "disclosed in U.S. Patent Publication No. 2020/0377494A1; cited from earlier work"}, "pSTAT3 and MYC": {"test_system": "pSTAT3 and MYC", "details": "disclosed in U.S. Patent Publication No. 2020/0377494A1; cited from earlier work"}},
  "note": "Entries after “also recorded” stand apart in the source; their conditions may differ.",
  "data": [
    {"smiles": "Cc1ccc(-c2csc(NC(=O)c3ccccn3)n2)cc1", "note": "[CX-011]", "values": [
      {"measurement": "Dissolution by visual inspection", "setting": "[1]; Example 1: 5 mg in 10 mL 20%-40% 2-hydroxypropyl-β-cyclodextrin in water, sonicated 30 minutes", "result": "Not soluble"},
      {"measurement": "Dissolution by visual inspection", "setting": "[1]; Example 2: 5 mg in 10 mL 20%-40% 2-hydroxypropyl-β-cyclodextrin in water plus 50 μL 1N HCl, sonicated 30 minutes", "result": "Not soluble"},
      {"measurement": "Dissolution by visual inspection", "setting": "[1]; Example 3: 4 mg in 2 mL 3N HCl aqueous, sonicated 30 minutes", "result": "Not soluble"},
      {"measurement": "Dissolution by visual inspection", "setting": "[1]; Example 4: 2.6 mg in 200 uL ~4N HCl in methanol, sonicated 30 minutes", "result": "Not soluble"},
      {"measurement": "Dissolution by visual inspection", "setting": "[1]; Example 5: 6 mg treated with 1 eq MeSO3H in CH2Cl2, evaporated, dried residue in 10 mL water, sonicated 30 minutes", "result": "Not soluble"},
      {"measurement": "Dissolution by visual inspection", "setting": "[1]; Example 6: 1 mg in 10 mL 10% polyvinylpyrrolidone K-30, sonicated 30 minutes", "result": "Not soluble"},
      {"measurement": "Dissolution by visual inspection", "setting": "[1]; Example 7: 1.5 mg in 0.5 mL ethanol, sonicated 30 minutes", "result": "Not soluble"},
      {"measurement": "Dissolution by visual inspection", "setting": "[1]; Example 8: 3 mg in 0.5 mL propylene glycol, sonicated 30 minutes", "result": "Not soluble"},
      {"measurement": "Appearance after addition of water", "setting": "[1]; Example 9: 4 mg in 0.5 mL DMA, then 0.5 mL water added", "result": "Precipitation was observed"},
      {"measurement": "Dissolution by visual inspection", "setting": "[1]; Example 9: 4 mg in 0.5 mL DMA, vortexed", "result": "clear solution"},
      {"measurement": "Appearance after addition of water", "setting": "[1]; Example 10: 2.8 mg in 0.5 mL PEG400, then 0.5 mL water added", "result": "Precipitation was observed"},
      {"measurement": "Dissolution by visual inspection", "setting": "[1]; Example 10: 2.8 mg in 0.5 mL PEG400, vortexed", "result": "dissolved"},
      {"measurement": "Dissolution by visual inspection", "setting": "[1]; Example 11: 3.0 mg in 5 mL 30% Kolliphor HS 15, sonicated 30 minutes", "result": "Dissolved—clear solution"},
      {"measurement": "Dissolution by visual inspection", "setting": "[1]; Example 12: 15 mg in 1 mL polysorbate 80, sonicated 30 minutes", "result": "clear"},
      {"measurement": "Appearance after addition of water", "setting": "[1]; Example 12: 15 mg in 1 mL polysorbate 80, then 10 mL water added", "result": "precipitate was observed"},
      {"measurement": "Appearance of the diluted solution", "setting": "[1]; Example 14: 15 mg diluted to 100 mL with water, PBS or saline, final Kolliphor HS about 1.5%-3%", "result": "clear"},
      {"measurement": "Dissolution by visual inspection", "setting": "[1]; Example 14: 15 mg in 5-10 mL 30% Kolliphor HS, sonicated 2 hours", "result": "clear solution"},
      {"measurement": "Solubility in aqueous solution", "setting": "[1]; aqueous solution, general statement", "result": "poorly soluble; also recorded: poor solubility"},
      {"measurement": "Difference of the concentration of CX-011 before or after filtration", "setting": "[2]; Example 14: 0.22 um filter, UV absorbance at 323 nm", "result": "no significant difference"},
      {"measurement": "pH value of the solution", "setting": "[2]; Example 14: PBS solution", "result": 7.2},
      {"measurement": "pH value of the solution", "setting": "[2]; Example 14: water and saline solution", "result": "5-5.5"},
      {"measurement": "Appearance of the solution on storage", "setting": "[2]; Example 14 solution, after 1 week at room temperature", "result": "remained clear"},
      {"measurement": "Stability of the compound by HPLC analysis", "setting": "[2]; Example 14 solution, under preparation and storage", "result": "stable"},
      {"measurement": "Generation of aggrecan and collagen neoepitopes", "setting": "[3]", "result": "almost completely blocked"},
      {"measurement": "Levels of pSTAT3 and MYC", "setting": "pSTAT3 and MYC", "result": "did not increase"}
    ]}
  ]
}
